Experimental data reported in patent US5045566A, “Novel imidate insecticides” (ICI Americas Inc., priority 1989, dated 1991).

Tests used:
Assay type in all cases: in vivo
[1] = system: Housefly [Musca domestica]; test: Housefly contact mortality in dishes (HF), 48 hours; conditions: μg of test compound per 25 female flies
Procedure, shortened: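 Residual contact test: acetone dilution, 0.01% peanut oil spreader, solvent evaporated; 25 ♀ flies (1-2 d old) per cage; sugar-water plug; 48 h mortality read. LC50 in μg/25 female flies, from dose-mortality curves; top dose 100 μg/25 flies.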

[2] = system: Black Bean Aphid [Aphis fabae (Scop.)]; test: Black bean aphid spray test on nasturtium (BBA), 48 hours; conditions: percent of test compound in sprayed solution
Procedure, shortened: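 LC50, given as percent test compound in the sprayed liquid, was calculated from dosage-mortality curves using concentrations from 0.05% downward. Sprays in 50:50 acetone-water went to runoff on ~5 cm nasturtiums carrying 25-50 aphids of mixed ages, one day after infestation. Deaths were counted 48 h later under greenhouse conditions.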

[3] = system: Tobacco Budworm [Heliothis virescens (Fabricius)] larvae; test: Tobacco budworm larvae, contact (TBW-C), 5 days; conditions: percent in solution, second-instar larvae
Protocol: The compounds in Tables 1 and 2 above were tested for insecticidal activity using the following testing procedures. LC50 values, based on the results of these tests and calculated according to dosage-mortality curves, are expressed in Table 3.
Tobacco Budworm [Heliothis virescens (Fabricius)]:
(a) Contact: Test compounds were diluted in a 50-50 acetone-water solution. Cotton (Gossypium sp.) cotyledons were immersed in the test solutions for 2-3 seconds and placed on a wire screen to dry. The dried leaves were placed in petri dishes containing a moistened piece of filter paper and infested with 5 second-instar tobacco budworm larvae. The dishes were placed in a high humidity chamber for 5 days, and percent mortality of the larvae recorded. Test concentrations ranged from 0.1% downward. The LC-50 values are expressed below in Table 3 under the heading "TBW-C" in terms of percent of the test compound in the solution.

[4] = system: Tobacco Budworm [Heliothis virescens (Fabricius)] eggs; test: Tobacco budworm eggs (TBW-E); conditions: percent in solution; 2-day old eggs
Procedure, shortened: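 LC50 values (percent test compound in the dip solution) were calculated from dosage-mortality curves. Egg patches, 2 days old, were dipped in acetone solutions at concentrations from 0.1% downward and held at 78° F on rearing medium until control larvae hatched and fed.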

[5] = system: Maize weevil [Sitophilus zeamais (Motschulsky)]; test: Maize weevil on dipped corn seeds (MW), 48 hours; conditions: percent in solution, adult weevils
Procedure, shortened: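 LC50, given as percent of compound in dipping solution, comes from dosage-mortality curves over concentrations descending from 0.01%. Four corn seeds soaked 2-3 s in 50:50 acetone:water solution were dried and held with 10 adult weevils, about 25° C, mortality read after 48 h.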

[6] = system: Cabbage Looper [Trichoplusia ni (Hubner)]; test: Cabbage looper leaf dip (CL), 3-5 days; conditions: percent in solution, second-instar larvae
Procedure, shortened: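 Leaf dip, squash cotyledons, 50-50 acetone-water, top dose 0.1% and lower. 5 second-instar larvae/dish, moist filter paper, high-humidity chamber. Mortality at 3-5 d; LC50 (% in solution) from dosage-mortality curves.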

[7] = system: Aster Leafhopper [Macrosteles fascifrens (Stal)]; test: Aster leafhopper on dipped oat seedlings (LH), 48 hours; conditions: percent in solution, adults/nymphs
Procedure, shortened: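 Three ~10 cm oat seedlings per cup were dipped 2-3 seconds in 50-50 acetone-water compound solutions, dried, and caged with ten adult/nymph leafhoppers. Mortality was counted after 48 hours at concentrations from 0.05% downward. LC50, as percent compound in solution, came from dosage-mortality curves.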

Row | Compound | LC50 HF [1] [µg] | LC50 BBA [2] [%] | LC50 TBW C (contact) [3] [%] | LC50 TBW E (eggs) [4] [%] | LC50 MW [5] [%] | LC50 CL [6] [%] | LC50 LH [7] [%]
1 | Fc1ccc(N=C(OCc2cccc(Oc3ccccc3)c2)C(Cl)Cl)cc1 [Compound 44] | 3 | 0.0006 | < 0.1 | 0.06 |  |  | 
2 | CC(C)C(=Nc1ccc(Cl)c(Cl)c1)OCc1cccc(Nc2ccc(F)cc2)c1 [Compound 514] | > 100 | 0.003 |  | > 0.1 | > 0.01 | 0.008 | > 0.05
3 | CC(C)C(=Nc1ccc2c(c1)OCO2)OCc1cc(Oc2ccc(F)cc2)ccn1 [Compound 515] | 28 | > 0.05 |  | > 0.1 | > 0.01 | 0.0015 | > 0.05
4 | CC(C)C(=Nc1ccc(F)c(Cl)c1)OCc1cc(Oc2ccc(Cl)cc2)ccn1 [Compound 516] | > 100 | > 0.05 |  | > 0.1 | > 0.01 | 0.008 | > 0.05
5 | CC(C)C(=Nc1cccc(C(F)(F)F)c1)OCc1ccnc(Oc2ccc(Cl)cc2)c1 [Compound 517] | 80 | > 0.05 |  | 0.04 | > 0.01 | 0.0008 | > 0.05
6 | CC(C)C(=Nc1cccc(C(F)(F)F)c1)OCc1cccc(Oc2ccc(Cl)cn2)c1 [Compound 518] | > 100 | > 0.05 |  | > 0.1 | > 0.01 | 0.00075 | > 0.05
7 | C#CC(OC(=Nc1cccc(C(F)(F)F)c1)C(C)C)c1cccc(Oc2ccccc2)c1 (stereo not shown) [Compound 519] | 60 | > 0.05 |  | > 0.1 | > 0.01 | 0.0037 | > 0.05
8 | CCC(=Nc1ccc(F)c(F)c1)OCc1coc(Cc2ccccc2)c1 [Compound 524] | 5.2 | > 0.05 |  | > 0.1 | > 0.01 | > 0.1 | > 0.05
9 | CC(C)(C)C(=Nc1ccc(F)c(F)c1)OCc1coc(Cc2ccccc2)c1 [Compound 525] | > 100 | > 0.05 |  | > 0.1 | > 0.01 | < 0.1 | > 0.05
10 | CC(=Nc1ccc(F)c(F)c1)OCc1coc(Cc2ccccc2)c1 [Compound 526] | 8.3 | > 0.05 |  | > 0.1 | > 0.01 | > 0.1 | > 0.05
11 | CC(C)C(=Nc1ccc(F)c(Cl)c1)OCc1cccc(Oc2ccc(Cl)cn2)c1 [Compound 527] | 47 | 0.03 |  | 0.035 | > 0.01 | 0.00065 | > 0.05
12 | CC(C)C(=Nc1ccc2c(c1)OCO2)OCc1cccc(Oc2ccc(Cl)cn2)c1 [Compound 532] | > 100 | > 0.05 |  | > 0.1 | > 0.01 | < 0.1 | > 0.05
13 | C#CC(OC(=Nc1ccc(F)c(Cl)c1)C(C)C)c1cccc(Oc2ccccc2)c1 (stereo not shown) [Compound 533, N-(3-chloro-4-fluorophenyl)-O-[1-(3-phenoxyphenyl)-2-propyn-1-yl]isobutyrimidate] | 60 | > 0.05 |  | > 0.1 | > 0.01 | > 0.1 | > 0.05
14 | CC(C)C(=Nc1ccc(F)c(Cl)c1)OCC#CCOc1ccccc1 [Compound 534] | > 100 | > 0.05 |  | > 0.1 | > 0.01 | < 0.1 | > 0.05
15 | CC(C)C(=Nc1ccc(C(F)(F)F)cc1)OCc1cccc(Cc2ccccc2)c1 [Compound 535] | 41 | > 0.05 |  | > 0.1 | > 0.01 | > 0.1 | > 0.05
16 | Cc1c(COC(=Nc2ccc(C(C)(C)C)cc2)C(C)C)cccc1-c1ccccc1 [Compound 536] | > 100 | < 0.05 |  | > 0.1 | > 0.01 | < 0.1 | > 0.05
17 | CC(C)C(=Nc1ccc(F)c(Cl)c1)OCc1cccc(Cc2ccccc2)c1 [Compound 537] | 20 | > 0.05 |  | > 0.1 | > 0.01 | > 0.1 | > 0.05
18 | CC(C)C(=Nc1ccc([N+](=O)[O-])cc1)OCc1coc(Cc2ccccc2)c1 [Compound 539] | 22 | > 0.05 |  | > 0.1 | > 0.01 | > 0.1 | > 0.05
19 | CC(C)C(=Nc1ccc2c(c1)OCO2)OCc1ccnc(Oc2ccccc2)c1 [Compound 540] | > 100 | > 0.05 |  | > 0.1 | > 0.01 | < 0.1 | > 0.05
20 | CC(C)C(=Nc1ccc(F)c(Cl)c1)OCc1cccc(Cc2ccccc2)c1 [Compound 541] | < 100 | 0.004 |  | > 0.1 | > 0.01 | 0.001 | > 0.05
21 | CC(C)C(=Nc1ccc(OC(F)(F)F)cc1)OCc1cccc(Cc2ccccc2)c1 [Compound 542] | > 100 | > 0.05 |  | > 0.1 | > 0.01 | > 0.01 | > 0.05
22 | CC(C)C(=Nc1ccc(C(F)(F)F)cc1)OCc1cccc(Cc2ccccc2)c1 [Compound 543] | < 100 | 0.003 |  | > 0.1 | > 0.01 | 0.0008 | < 0.05
23 | COCc1c(F)c(F)c(COC(=Nc2ccc(C(C)(C)C)cc2)C(C)C)c(F)c1F [Compound 544] | > 100 | 0.005 |  | > 0.1 | > 0.01 | > 0.1 | > 0.05
24 | Cc1cccc(N=C(OCc2cccc(Oc3ccc(Cl)cc3)n2)C(C)C)c1 [Compound 545] | < 100 | 0.005 |  | > 0.1 | > 0.01 | > 0.1 | > 0.05
25 | C#CCc1c(F)c(F)c(COC(=Nc2cccc(C(F)(F)F)c2)C(C)C)c(F)c1F [Compound 546] | < 100 | 0.001 |  | > 0.1 | 0.0032 | 0.0001 | < 0.05
26 | C#CCc1c(F)c(F)c(COC(=Nc2ccc3c(c2)OCO3)C(C)C)c(F)c1F [Compound 547] | < 100 | 0.0006 |  | 0.05 | > 0.01 | 0.0005 | < 0.05
27 | CC(C)C(=Nc1cccc(C(F)(F)F)c1)OCC#CCOc1ccccc1 [Compound 548] | > 100 | > 0.05 |  | > 0.1 | > 0.01 | < 0.1 | > 0.05
28 | CC(C)C(=Nc1ccc(F)c(Cl)c1)OCc1cccc(Oc2ccccn2)c1 [Compound 549] | < 100 | > 0.05 |  | > 0.1 | > 0.01 | > 0.1 | > 0.05
